One experiment has as its system GM1-enriched lipid rafts. In kind it is cell-based, mouse. The conditions noted are these: JAWS II cells, 18 hr with 100 nM glycolipid.
The target of the next experiment is T1, mCD1d (Mus musculus, UniProt P11609).
T1 sequence (P11609 22-305 limits assumed): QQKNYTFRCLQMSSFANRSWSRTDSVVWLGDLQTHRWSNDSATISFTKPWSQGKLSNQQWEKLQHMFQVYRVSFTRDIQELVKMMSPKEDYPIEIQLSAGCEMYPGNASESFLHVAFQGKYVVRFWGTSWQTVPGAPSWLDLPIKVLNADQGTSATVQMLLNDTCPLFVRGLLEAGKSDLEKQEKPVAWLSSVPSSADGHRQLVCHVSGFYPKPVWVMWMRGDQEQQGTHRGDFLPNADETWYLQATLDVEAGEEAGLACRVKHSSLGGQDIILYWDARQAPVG
T1 sequence (P01887 21-119 partner): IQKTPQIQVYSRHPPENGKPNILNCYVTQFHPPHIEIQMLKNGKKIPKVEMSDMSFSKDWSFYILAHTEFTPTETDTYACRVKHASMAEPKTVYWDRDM
Kind of experiment: Loading of mCD1d tetramers with or without 0.05% Triton X-100, staining of hybridoma DN3A4.1-2. It is filed as binding. To be noted: 0.05% Triton X-100, 24 hr at 37°C. An excerpt:
The efficient loading of CD1 molecules with lipids such as αGalCer-C26:0 is known to involve cofactors that enhance the transfer of lipids from micelles or membranes into the antigen-binding groove of the CD1 protein. The best known of these cofactors are resident intracellular lipid binding and transfer proteins including those belonging to the saposin family, GM2 activator proteins, and Niemann-Pick type C1 and C2 proteins ([Zhou et al., 2004; Sagiv et al., 2006; Yuan et al., 2007; Schrantz et al., 2007]). Most of these are known to have detergent-like activities that facilitate solubilization of lipids and their exchange between hydrophobic binding sites. […]
Figure 5 Lack of Detergent-like Cofactor Dependence of Th2 Cell-Type Cytokine-Biasing αGalCer Analogs (A) Glycolipids were incubated for 24 hr at 37°C with murine CD1d proteins in the absence (top row) or presence (bottom row) of 0.05% Triton X-100. […] After washing, DN32.D3 iNKT hybridoma cells were added and supernatant concentrations of IL-2 were determined after an additional 14 hr of incubation. […]
Recombinant CD1d proteins were produced and assembled into tetramers for staining as previously described ([Forestier et al., 2007]). […] All samples were analyzed with the FACSCalibur flow cytometer (BD Biosciences).

The structures appear in SMILES notation.

Consider three compounds from publication PMC2719696, “Kinetics and Cellular Site of Glycolipid Loading Control the Outcome of Natural Killer T Cell Activation” (Immunity, 2009).

As for `CCCCCCCCCCCCCCC(O)C(O)C(COC1OC(CO)C(O)C(O)C1O)NC(=O)CCCCCCCCC` (stereo not shown) [αGalCer-C10:0], the “colocalization of L363 staining with CTxB staining” value in the experiment on GM1-enriched lipid rafts was “extremely limited colocalization with CTxB staining”. Consider `CCCCCCCCCCCCCCCCCCCCCCCC(=O)NC(COC1OC(CO)C(O)C(O)C1O)C(O)C(O)CCCCCCCCCCCCCC` (stereo not shown) [αGalCer-C24:0], for which the “effect of Triton X-100 on formation of mCD1d tetramers that bind iNKT cell TCRs” value at mCD1d is “clear enhancing effect”. For the compound `CCCCCCCCCCCCCCCCCCCCCCCCCC(=O)NC(COC1OC(CO)C(O)C(O)C1O)C(O)C(O)CCCCCCCCCCCCCC` (stereo not shown) [αGalCer-C26:0, reference compound], the “colocalization of L363 staining with CTxB staining” value with GM1-enriched lipid rafts is “strong colocalization with CTxB staining”. For the same compound, the “effect of Triton X-100 on formation of mCD1d tetramers that bind iNKT cell TCRs” value at mCD1d is given as “clear enhancing effect”.
